According to the supplement of paper PMC10307832:

How the values were obtained:
Assay in all cases: relative viability (nuclei count vs DMSO), 5 days (fraction); higher = more cells survive
[1] = compound: C1=CC2=NC=CN=C2C=C1/C=C/3\C(=O)NC(=O)S3 + CC1(C)CCC(c2ccc(Cl)cc2)=C(CN2CCN(c3ccc(C(=O)NS(=O)(=O)c4ccc(N[C@H](CCN5CCOCC5)CSc5ccccc5)c(S(=O)(=O)C(F)(F)F)c4)cc3)CC2)C1 [Navitoclax] (partner 0.5 µM)
Method in brief: (§1)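 Medians of duplicate plates are given as relative viability. That measure is the nuclei count in treated wells divided by the count in vehicle wells. Counts were taken on 4× images of lung cancer cell lines in 1536-well plates, 5 days after pin-tool dosing the day after seeding with one drug alone or a fixed anchor-drug dose plus five library-drug doses (not always all listed) in √10 steps.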

[2] = compound: C1=CC2=NC=CN=C2C=C1/C=C/3\C(=O)NC(=O)S3 + CS(=O)(=O)CCNCc1ccc(-c2ccc3ncnc(Nc4ccc(OCc5cccc(F)c5)c(Cl)c4)c3c2)o1 [Lapatinib] (partner 2 µM)
Method in brief: as §1

[3] = compound: CCN1CCN(c2ccc(Nc3cc(N(C)C(=O)Nc4c(Cl)c(OC)cc(OC)c4Cl)ncn3)cc2)CC1 [BGJ398] + CCNC(=O)c1noc(-c2cc(C(C)C)c(O)cc2O)c1-c1ccc(CN2CCOCC2)cc1 [Luminespib] (partner 0.01 µM)
Method in brief: as §1

[4] = compound: CCN1CCN(c2ccc(Nc3cc(N(C)C(=O)Nc4c(Cl)c(OC)cc(OC)c4Cl)ncn3)cc2)CC1 [BGJ398] + Cc1nc(Nc2ncc(C(=O)Nc3c(C)cccc3Cl)s2)cc(N2CCN(CCO)CC2)n1 [Dasatinib] (partner 0.075 µM)
Method in brief: as §1

Cell Line | relative viability ([1]; first compound 0.02 µM) | relative viability ([1]; first compound 0.06325 µM) | relative viability ([1]; first compound 0.2 µM) | relative viability ([1]; first compound 0.6325 µM) | relative viability ([1]; first compound 2 µM) | relative viability ([2]; first compound 0.02 µM) | relative viability ([2]; first compound 0.06325 µM) | relative viability ([2]; first compound 0.2 µM) | relative viability ([2]; first compound 0.6325 µM) | relative viability ([2]; first compound 2 µM) | relative viability ([3]; first compound 0.01 µM) | relative viability ([3]; first compound 0.03162 µM) | relative viability ([3]; first compound 0.1 µM) | relative viability ([3]; first compound 0.3162 µM) | relative viability ([3]; first compound 1 µM) | relative viability ([4]; first compound 0.01 µM) | relative viability ([4]; first compound 0.03162 µM) | relative viability ([4]; first compound 0.1 µM) | relative viability ([4]; first compound 0.3162 µM) | relative viability ([4]; first compound 1 µM)
COR-L23 | 0.919 | 1.08 | 1.03 | 0.946 | 0.962 | 0.832 | 1.31 | 0.921 | 0.771 | 0.923 | 0.745 | 0.731 | 0.598 | 0.799 | 0.789 | 0.474 | 0.527 | 0.571 | 0.464 | 0.456
NCI-H2087 | 0.88 | 1.2 | 1.07 | 1.04 | 0.96 | 0.859 | 1.24 | 0.941 | 0.98 | 0.931 | 0.177 | 0.186 | 0.173 | 0.203 | 0.133 | 0.824 | 0.898 | 0.808 | 0.801 | 0.871
LC-2-ad | 0.441 | 0.455 | 0.461 | 0.378 | 0.397 | 0.927 | 1.04 | 0.949 | 0.924 | 0.797 | 0.958 | 1.05 | 0.978 | 1.04 | 1.07 | 0.572 | 0.756 | 0.566 | 0.538 | 0.433
NCI-H1915 | 0.757 | 0.796 | 0.806 | 0.732 | 0.797 | 1.01 | 1.1 | 1.02 | 0.928 | 0.971 | 0.675 | 0.826 | 0.852 | 0.688 | 0.784 | 0.308 | 0.306 | 0.309 | 0.295 | 0.261
NCI-H1793 | 0.509 | 0.439 | 0.496 | 0.36 | 0.83 | 0.702 | 0.532 | 0.832 | 0.725 | 0.773 | 0.167 | 0.229 | 0.175 | 0.163 | 0.196 | 0.286 | 0.398 | 0.403 | 0.316 | 0.276
NCI-H2023 | 1.01 | 1.11 | 1.02 | 1.02 | 0.978 | 0.872 | 0.735 | 1.01 | 0.764 | 0.466 | 0.627 | 0.849 | 0.739 | 0.851 | 0.809 | 0.517 | 0.537 | 0.582 | 0.489 | 0.438
COR-L 105 | 0.697 | 0.703 | 0.821 | 0.678 | 0.999 | 0.332 | 0.343 | 0.368 | 0.335 | 0.289 | 0.69 | 0.972 | 0.832 | 0.93 | 0.801 | 0.275 | 0.279 | 0.371 | 0.307 | 0.276
RERF-LC-KJ | 0.69 | 0.897 | 1.01 | 0.863 | 0.826 | 0.729 | 0.923 | 0.842 | 0.759 | 0.689 | 1.23 | 1.25 | 1.32 | 1.26 | 1.31 | 0.655 | 0.933 | 0.753 | 0.858 | 0.819
